Reference: a melting point compilation (Tetko et al.; mined from patent text by program, amines drawn as free bases though some values may be those of a salt)

`O=C(O)C1Cc2ccccc2N1S(=O)(=O)c1ccc(-c2cc(C(F)(F)F)ccc2Cl)cc1` (centres undefined) gave a melting point of 79 to 83 °C.
Work on `CC(C)c1ccc(C(=O)Cl)cc1S(N)(=O)=O` yielded a melting point of 177 °C.
Work on `Cc1oc(-c2ccc(C(F)(F)F)cc2)nc1-c1ccc2c(Br)c(OC(Cc3ccccc3)C(=O)O)ccc2c1` (centres undefined) yielded a melting point of 195 to 197 °C.
`CC(NC(=O)OCc1ccccc1)C(=O)NCCc1ccccc1` (centres undefined) showed a melting point of 125 to 126 °C.
With `COc1ccc(-c2ccc(C(=O)Nc3cc4ncc(CN5CCCC5)cc4cc3F)cc2)cc1` the melting point was 184 to 186 °C.
With `COc1cc(OC)c(OC)cc1CN1CCc2cc(O)ccc2C1` the melting point was 188 to 191 °C.
Work on `Cc1c(C(=O)O)nnn1Cc1c(F)cccc1F` yielded a melting point of 166 to 167 °C.
For `OCCOc1cccc2cnccc12`, the melting point was 64 to 67 °C.
For `Nc1nc(=O)n(C2OC(CO)CC2F)cc1F` (centres undefined), the melting point was 209 to 210 °C.
`CC1(C)Oc2cc(Br)sc2C(N2CCCCC2=O)C1O` (centres undefined) gave a melting point of 200 to 202 °C.
With `COC(=O)c1cccc(Oc2ccc([N+](=O)[O-])cc2C(=O)OC)c1` the melting point was 97 to 99 °C.
Compound `Nc1nc(OCc2ccccc2)c2ncn(CCC3COP(=O)(OCc4ccccc4)OC3)c2n1` (centres undefined) has a melting point of 162 to 166 °C.
In the case of `COCCc1nc2c(N)nc3ccccc3c2n1CCOCCN(C(N)=O)c1ccccc1`, the melting point was 171 to 174 °C.
Work on `O=C=Nc1cc([N+](=O)[O-])c(Cl)cc1F` yielded a melting point of 43 to 46 °C.
`COc1ccc(CCNC(=O)C(F)(F)F)cc1S(=O)(=O)Cl` gave a melting point of 96 to 98 °C.
For `CCOC(=O)C(CCc1ccccc1)NC(CCCCNC(=O)CNC(=O)OC(C)(C)C)C(=O)O` (centres undefined), the melting point was 137 °C.
Work on `O=C1NCCC[C@@H]1NS(=O)(=O)c1cccc(C(F)(F)F)c1` yielded a melting point of 158 to 160 °C.
In the case of `CC(=NCCO)c1ccccc1NC(=O)C(Cl)(Cl)Cl`, the melting point was 182 °C.
For `COC(=O)C1=C(C)Nc2c(c(C)nn2C)C1c1ccccc1[N+](=O)[O-]` (centres undefined), the melting point was 216 to 220 °C.
With `N#Cc1c(-c2ccc(Cl)cc2)[nH]c([N+](=O)[O-])c1Br` the melting point was 180 to 185 °C.
For `COC(=O)c1ccc(Cc2cn(C)c3ccc(C(=O)OC)cc23)c(OC)c1`, the melting point was 137 to 140 °C.
With `CCOC(=O)c1cn(C)c2cc(Cl)sc2c1=O` the melting point was 168 to 171 °C.
Work on `Cc1cc(=O)n2c3c(cc(C(O)(C(F)(F)F)C(F)(F)F)cc13)CC2` yielded a melting point of 337 to 338 °C.
Compound `NC1CCc2ccccc2N(CC(=O)O)C1=O` (centres undefined) has a melting point of 147 to 150 °C.
`CC1C(c2ccccc2)OC(=O)N1C(=O)CC1c2ccccc2CCc2ccccc21` (centres undefined) gave a melting point of 130 to 131 °C.
`CC(C)(C)OC(=O)c1ccc(C(=O)OC(C)(C)C)cc1` gave a melting point of 117 to 118 °C.
Compound `O=C(c1ccc2nonc2c1)N1C2CCC1CC(F)(F)C2` has a melting point of 165 to 166 °C.
`CC(C)(C)C(=O)Nc1ccc(C=CC(=O)N2CCc3c([nH]c4ccccc34)C2c2ccc3c(c2)OCO3)cc1` (centres undefined) gave a melting point of 172 to 174 °C.
Work on `CNC(=O)C1(C)Oc2c(C)c(C)c(O)c(C)c2CC1OC` (centres undefined) yielded a melting point of 139 to 140 °C.
`O=[N+]([O-])c1ccc(CF)cc1` showed a melting point of 33 to 34 °C.
Compound `Cc1cnnc2c1C(=O)CC(c1cc(Cl)ccc1F)C2` (centres undefined) has a melting point of 124 to 125 °C.
For `COc1ccc(CCc2c(Cc3ccccc3)sc3ccccc23)cc1`, the melting point was 68 to 70 °C.
With `CN1OC(COCc2ccc(Cl)cc2)CC1(Cn1ccnc1)c1ccc(Cl)cc1` (centres undefined) the melting point was 97 to 100 °C.
Compound `O=[N+]([O-])c1cc(C(F)(F)F)ccc1N1CCc2ccccc21` has a melting point of 89 to 92 °C.
Work on `O=C1Nc2ccc(F)c(F)c2C1c1ncnc2c1cnn2C1CCCC1` (centres undefined) yielded a melting point of over 300 °C.
`CNC(=O)NCC(C)(C)N` showed a melting point of 150 °C.
Compound `O=C1OC(CCOc2ccc3oc4ccccc4c3c2)C(O)=C1O` (centres undefined) has a melting point of 191 to 192 °C.
With `O=C(CC(Cc1ccccc1)C(=O)O)c1ccc(Cl)cc1` (racemic) the melting point was 137 to 138 °C.
Work on `CC(C(=O)O)c1ccc2nc3ccc(S(C)(=O)=O)cn3c(=O)c2c1` (centres undefined) yielded a melting point of 240 °C.
With `O=C(O)C(Cc1ccccc1)Oc1ccc2cc(-c3cnc(-c4cn(Cc5ccccc5)c5ccccc45)o3)ccc2c1` (centres undefined) the melting point was 125 to 127 °C.
`Cc1cc2c(cc1F)N(C(N)=O)C(=O)C2` showed a melting point of 200 to 203 °C.
With `C=C1C(=O)N(C)CCC1c1cccc(OC)c1` (centres undefined) the melting point was 67 to 70 °C.
With `S=C(Nc1cccc(Cl)c1)N1CCCSC1c1ccccc1` (centres undefined) the melting point was 132 to 135 °C.
Work on `CCCCc1[nH]c2ccc([N+](=O)[O-])cc2c1C(=O)c1ccc(O)cc1` yielded a melting point of 230 °C.
Compound `O=C(Cc1cccc(OCCCN(Cc2cccc(C(F)(F)F)c2Cl)CC(c2ccccc2)c2ccccc2)c1)NS(=O)(=O)c1ccccc1` has a melting point of 110 °C.
`O=C(O)C1C=CCn2c(=O)n(CO)c(=O)n21` (centres undefined) showed a melting point of 175 to 178 °C.
With `O=C(Nc1cccc([N+](=O)[O-])c1)NC1C(=O)N(CC23CC4CC(CC(C4)C2)C3)c2ccccc2N(c2ccccc2)C1=O` (centres undefined) the melting point was 213 to 215 °C.
With `CC1=Nc2c(C)nn(C)c2C2=NCCN12` the melting point was 174 to 177 °C.
In the case of `N#CCc1nn2c(C(F)(F)F)cc(-c3ccc(F)c(Cl)c3)nc2c1C#N`, the melting point was 185 °C.
`CCOCc1nc2c(N)nc3ccccc3c2n1CCOCCNC(=O)Nc1ccccc1` showed a melting point of 183 to 186 °C.
For `Fc1ccc(CN2CCN(C3CC=C(c4ccc(C(F)(F)F)cc4)CC3)CC2)cc1` (centres undefined), the melting point was 108 to 109 °C.
`CC(C)(C)OC(=O)N(C(=O)OC(C)(C)C)c1c(C#CBr)c(C#N)nn1-c1c(Cl)cc(C(F)(F)F)cc1Cl` gave a melting point of 130 to 131 °C.
For `Cc1ccc2c(Cl)cc(S(=O)(=O)NCCc3ccc(N)cc3)c(O)c2n1`, the melting point was 249 to 253 °C.
Work on `Cc1nc(NC(=O)c2cnn3c(C(F)(F)F)cc(-c4ccc(C(F)(F)F)cc4)nc23)sc1S(=O)(=O)NC(C)(CO)CO` yielded a melting point of 250 °C.
With `CC(=O)OC1C=C(C)C(=O)CC(C)(C)C1OC(C)=O` (centres undefined) the melting point was 68 to 69 °C.
Compound `O=C(NCC(F)(F)F)c1ccc(C(F)(F)F)cc1` has a melting point of 117 °C.
`COc1cc(CC(=O)N2CCN(C(=O)CNC3CCN(Cc4ccccc4)CC3)C(c3ccccc3)C2)cc(OC)c1OC` (centres undefined) showed a melting point of 53 to 56 °C.
In the case of `COc1cc(Nc2c(C#N)cnc3cc4ccccc4cc23)c(C)cc1Cl`, the melting point was 195 to 197 °C.
For `COC(=O)c1cc2c3ccccc3n(CC3CC3)c2s1`, the melting point was 110 to 111 °C.
`Fc1ccc2c(C3CCN(C(=S)Nc4ccccc4)CC3)nn(-c3ccccc3)c2c1` gave a melting point of 151 to 153 °C.
In the case of `CNC(=O)Nc1ccc(OCCCN2CCN(c3ccccc3)CC2)c(OC)c1`, the melting point was 167 to 169 °C.
`O=C(O)CS(=O)(=O)c1cc(NS(=O)(=O)c2cccs2)c2ccccc2c1O` showed a melting point of 190 to 192 °C.
`COc1cc(CCCCC2OC(=O)NC2=O)ccc1OCc1coc(/C=C/c2ccccc2)n1` (centres undefined) showed a melting point of 171 to 172 °C.
`CCCCC(CC)Cn1c(O)c(N=Nc2ccc(S(=O)(=O)N(CCO)CCO)cc2)c(C)c(C#N)c1=O` (centres undefined) showed a melting point of 189 to 190 °C.
With `C#CCNC(=O)c1c(I)cccc1[Si](C)(C)C` the melting point was 109 to 111 °C.
`CCCCc1nn(-c2ccccc2C(F)(F)F)c(=O)n1Cc1ccc(-c2ccccc2S(=O)(=O)NC(=O)OC(C)(C)C)cc1F` gave a melting point of 83 to 85 °C.
Work on `CCOC(=O)c1ccc(NCCCCCCCCc2ccccc2)cc1` yielded a melting point of 61 to 68 °C.
Work on `CN(C)C(=O)C1(CCCN2CCCCC2)CC=CCC1c1ccccc1` (centres undefined) yielded a melting point of 105 to 106 °C.
Work on `CCCN(C(=O)CBr)c1ccc([N+](=O)[O-])cc1C(=O)c1ccccc1` yielded a melting point of 122 °C.
Compound `CC(=O)c1cc2cnccc2n1S(=O)(=O)c1ccccc1` has a melting point of 205 °C.
For `CCc1cc(C#N)c(=O)[nH]c1C`, the melting point was 237 to 240 °C.
`CCCCCCCCCCCCc1nnn(CC(=O)O)n1` gave a melting point of 89 to 91 °C.
In the case of `Cc1ccc(N2CSC(=NCc3ccc(C(F)(F)F)cc3)N(CC(F)(F)F)C2=O)cc1`, the melting point was 97 to 98.5 °C.
`CNc1cc(F)cc(NC)c1[N+](=O)[O-]` gave a melting point of 198 °C.
`CCc1noc(-c2cn(-c3nc[nH]n3)cn2)n1` gave a melting point of 242 to 243 °C.
Compound `CCOP(=S)(NCc1cccc(-c2nc(=O)c3ccccc3s2)n1)OCC` has a melting point of 132 to 133 °C.
In the case of `CC(C)(Cc1ccc(Cl)cc1)C(O)(Cn1ccnc1)c1ccc(Cl)cc1` (centres undefined), the melting point was 174 °C.
With `O=C(CBr)Nc1ccc(C(=O)O)cc1` the melting point was 241 to 243 °C.
Work on `CC(C)NC1=NS(=O)(=O)c2cc(Br)ccc2N1` yielded a melting point of over 220 °C.
Work on `C=C(C)C(=O)OCCNC(=O)Nc1nc(=O)cc(C)[nH]1` yielded a melting point of 208 °C.
Work on `CC(=O)c1cccc(NC(=O)C(C)(C)C)c1` yielded a melting point of 130 to 133 °C.
Work on `COc1ccc(C(C)C)cc1-c1cc(C(=O)OCc2ccccc2)c(OCc2ccccc2)cc1OCc1ccccc1` yielded a melting point of 139 to 141 °C.
`CCN(CC)C(=O)c1ccc2ccccc2c1-c1ccc(C)cc1` showed a melting point of 181 to 183 °C.
Compound `FC(F)(F)c1cccc(N2CCN(c3ccc(I)nn3)CC2)c1` has a melting point of 145 °C.
With `Cc1nc2c(cc1C(=O)NC(=N)N)CCCCC2CS(=O)(=O)O` (centres undefined) the melting point was 245 to 247 °C.
Compound `N#Cc1cccnc1N1CCN(CC(=O)Nc2ccccc2)CC1` has a melting point of 110 to 112 °C.
For `CCCCCCCCC1(CCCCCCCC)c2cc(Br)ccc2-c2ccc(Br)cc21`, the melting point was 52 to 54 °C.
With `Cc1onc(-c2c(F)cccc2Cl)c1C(=O)CBr` the melting point was 74 to 75 °C.
With `N#Cc1cc(N(CC(=O)O)C(=O)c2cccn2-c2ccc(F)cc2)ccc1N1CCCCC1` the melting point was 117 to 120 °C.
For `CCC(=O)Nc1nnc(S)s1`, the melting point was 234 to 237 °C.
In the case of `COc1ccc(Cn2cnc3c(-c4ccco4)nc([N+](=O)[O-])nc32)cc1`, the melting point was 182 to 183 °C.
`COc1nc(-n2ncc(C#N)c2N)c(C(F)(F)F)cc1Cl` gave a melting point of 163 to 165 °C.
In the case of `CC(C)COC(=O)Oc1ccc2c(c1)OCN(CCO[N+](=O)[O-])C2=O`, the melting point was 82 to 84 °C.
For `S=C(Cc1ccccc1N1CCOCC1)N1CCOCC1`, the melting point was 140 °C.
`CC(Cl)C(CC(=O)c1ccccc1)[N+](=O)[O-]` (centres undefined) gave a melting point of 115 to 117 °C.
In the case of `C#Cc1cccc(Oc2ccc3c(c2)C(=O)N(c2cccc(C#C)c2)C3=O)c1`, the melting point was 150 to 160 °C.
In the case of `O=C(O)c1cccc(-c2ccc3c(c2)N(c2cc(Cl)ccc2Cl)CC3)c1`, the melting point was 219 to 220 °C.
`CCCCNC(=O)N1C2=NC(C)(C)N(C)C(=O)N2c2ccccc21` showed a melting point of 95 to 97 °C.
In the case of `O=C1Nc2cc(Cl)ccc2Nc2ccsc21`, the melting point was 255 to 256 °C.
